Test results reported in PubChem BioAssay (NCI).
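Five compound concentrations were applied to cells in 96-well plates for 48 hours; endpoints were derived by simple linear interpolation of the resulting dose-response curve. Here, GI50 denotes the concentration required for 50% inhibition of growth. The concentration for full growth arrest is given as TGI.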

Experiments:
Assay in all cases: DTP human tumour cell line panel, 48 h
[1] = system: UO-31 renal
[2] = system: MDA-MB-231 breast
[3] = system: OVCAR-4 ovarian
[4] = system: HCT-116 colon
[5] = system: UACC-257 melanoma
[6] = system: MOLT-4 leukemia
[7] = system: SNB-19 CNS
[8] = system: SR leukemia
[9] = system: HT29 colon
[10] = system: HS 578T breast
[11] = system: NCI-H460 lung
[12] = system: SF-295 CNS
[13] = system: SF-539 CNS
[14] = system: SNB-75 CNS
[15] = system: SF-268 CNS
[16] = system: BT-549 breast
[17] = system: MALME-3M melanoma
[18] = system: TK-10 renal
[19] = system: OVCAR-8 ovarian
[20] = system: SK-MEL-28 melanoma
[21] = system: MDA-MB-435
[22] = system: HCT-15 colon
[23] = system: MCF7 breast
[24] = system: M14 melanoma
[25] = system: A498 renal
[26] = system: A549 NSCLC
[27] = system: LOX IMVI melanoma
[28] = system: HL-60(TB) leukemia
[29] = system: HOP-62 NSCLC
[30] = system: IGROV1 ovarian
[31] = system: HCC-2998 colon
[32] = system: K-562 leukemia
[33] = system: PC-3 prostate
[34] = system: UACC-62 melanoma
[35] = system: SK-MEL-5 melanoma
[36] = system: OVCAR-5 ovarian
[37] = system: CCRF-CEM leukemia
[38] = system: SK-MEL-2 melanoma
[39] = system: EKVX NSCLC
[40] = system: HOP-92 NSCLC
[41] = system: U251 CNS
[42] = system: RPMI-8226 leukemia
[43] = system: NCI-H23 lung
[44] = system: SN12C renal
[45] = system: SW-620 colon
[46] = system: T-47D breast
[47] = system: ACHN renal
[48] = system: 786-0 renal
[49] = system: NCI-H226 lung
[50] = system: RXF 393 renal
[51] = system: NCI-H522 lung
[52] = system: SK-OV-3 ovarian
[53] = system: KM12 colon
[54] = system: OVCAR-3 ovarian
[55] = system: COLO 205 colon
[56] = system: NCI/ADR-RES ovarian

## CCC(C)[C@H]1OC(=O)[C@H](C(C)C)N(C)C(=O)[C@@H](C(C)C)OC(=O)[C@H](C(C)C)N(C)C(=O)[C@@H](C(C)CC)OC(=O)[C@H](C(C)C)N(C)C1=O (stereo not given in full)
[1]
  GI50: 422 nM
  TGI: 1710 nM
[2]
  GI50: 520 nM
  TGI: 1630 nM
[3]
  GI50: 632 nM
  TGI: > 16700 nM
[4]
  GI50: 532 nM
  TGI: > 16700 nM
[5]
  GI50: 427 nM
  TGI: 1560 nM
[6]
  GI50: 793 nM
  TGI: 2850 nM
[7]
  GI50: 616 nM
  TGI: 3890 nM
[8]
  GI50: 685 nM
  TGI: 3620 nM
[9]
  GI50: 567 nM
  TGI: 2160 nM
[10]
  GI50: 745 nM
  TGI: 6960 nM
[11]
  GI50: 570 nM
  TGI: 3350 nM
[12]
  GI50: 453 nM
  TGI: 1530 nM
[13]
  GI50: 638 nM
  TGI: 2710 nM
[14]
  GI50: 507 nM
  TGI: 2820 nM
[15]
  GI50: 726 nM
  TGI: 4260 nM
[16]
  GI50: 501 nM
  TGI: 1750 nM
[17]
  GI50: 458 nM
  TGI: 1810 nM
[18]
  GI50: 543 nM
  TGI: 3970 nM
[19]
  GI50: 610 nM
  TGI: > 16700 nM
[20]
  GI50: 952 nM
  TGI: 4450 nM
[21]
  GI50: 619 nM
  TGI: 7650 nM
[22]
  GI50: 536 nM
  TGI: 3520 nM
[23]
  GI50: 529 nM
  TGI: > 16700 nM
[24]
  GI50: 601 nM
  TGI: 2550 nM
[25]
  GI50: 390 nM
  TGI: 1170 nM
[26]
  GI50: 514 nM
  TGI: > 16700 nM
[27]
  GI50: 562 nM
  TGI: 2140 nM
[28]
  GI50: 383 nM
  TGI: 851 nM
[29]
  GI50: 491 nM
  TGI: 2420 nM
[30]
  GI50: 886 nM
  TGI: > 16700 nM
[31]
  GI50: 846 nM
  TGI: 8060 nM
[32]
  GI50: 687 nM
  TGI: > 16700 nM
[33]
  GI50: 588 nM
  TGI: 9930 nM
[34]
  GI50: 710 nM
  TGI: 2980 nM
[35]
  GI50: 357 nM
  TGI: 783 nM
[36]
  GI50: 537 nM
  TGI: 6120 nM
[37]
  GI50: 600 nM
  TGI: 3040 nM
[38]
  GI50: 533 nM
  TGI: 2190 nM
[39]
  GI50: 554 nM
  TGI: > 16700 nM
[40]
  GI50: 379 nM
  TGI: 1050 nM
[41]
  GI50: 560 nM
  TGI: 2330 nM
[42]
  GI50: 413 nM
  TGI: 1020 nM
[43]
  GI50: 548 nM
  TGI: > 16700 nM
[44]
  GI50: 544 nM
  TGI: 2160 nM
[45]
  GI50: 616 nM
  TGI: > 16700 nM
[46]
  GI50: 472 nM
  TGI: 1470 nM
[47]
  GI50: 517 nM
  TGI: 2960 nM
[48]
  GI50: 575 nM
  TGI: 5390 nM
[49]
  GI50: 647 nM
  TGI: 2730 nM
[50]
  GI50: 420 nM
  TGI: 2570 nM
[51]
  GI50: 429 nM
  TGI: 1650 nM
[52]
  GI50: 379 nM
  TGI: 1010 nM
[53]
  GI50: 651 nM
  TGI: > 16700 nM
[54]
  GI50: 694 nM
  TGI: > 16700 nM
[55]
  GI50: 341 nM
  TGI: 743 nM
[56]
  GI50: 510 nM
  TGI: 5900 nM

## CC(=O)Nc1ccc(NC(=O)Nc2cccc(-c3nc(-c4ccc(NC(=O)c5cccs5)cc4Cl)no3)c2)cc1C(F)(F)F
[2]
  GI50: 666 nM
  TGI: 2230 nM
[7]
  GI50: 692 nM
  TGI: 2670 nM
[10]
  GI50: 1830 nM
  TGI: 4550 nM
[12]
  GI50: 1460 nM
  TGI: 2990 nM
[13]
  GI50: 1450 nM
  TGI: 2910 nM
[14]
  GI50: 1310 nM
  TGI: 2990 nM
[15]
  GI50: 1560 nM
  TGI: 4080 nM
[16]
  GI50: 1680 nM
  TGI: 4600 nM
[18]
  GI50: 2190 nM
  TGI: 5070 nM
[29]
  GI50: 718 nM
  TGI: 2250 nM
[37]
  GI50: 1830 nM
  TGI: > 100000 nM
[38]
  GI50: 2060 nM
  TGI: 4150 nM
[40]
  GI50: 1090 nM
  TGI: 3020 nM
[41]
  GI50: 354 nM
  TGI: 1080 nM
[43]
  GI50: 1330 nM
  TGI: 3040 nM
[47]
  GI50: 2670 nM
  TGI: 8410 nM
[48]
  GI50: 2120 nM
  TGI: 4760 nM
[50]
  GI50: 1140 nM
  TGI: 2450 nM
[56]
  GI50: 19700 nM
  TGI: > 100000 nM
